Experimental findings from patent publication US20260226031A1, “NOVEL COMPOUNDS” (NRG THERAPEUTICS LTD., priority 2023, published 2026) are described below.

Experiment [1] has as its system mPTP. The experiment can be described thus: mPTP activity (Ca2+ retention) assay in isolated rat liver mitochondria. The format is biochemical. Conditions: for mPTP Rat liver pIC50*: isolated rat liver mitochondria, Fluo5N fluorescence at 10 min after CaCl2 (75 μM) bolus, DMSO 0%, 5 μM cyclosporin A 100% inhibition. From the text: Pharmacological inhibition or modulation of the mPTP can be measured in well characterised ‘Ca^2+ retention’ assays performed in isolated mitochondria. In vitro, isolated mitochondria rapidly sequester exogenous Ca^2+ until the intramitochondrial Ca^2+ concentration reaches the threshold for mPTP activation. Once the pore is activated, mitochondrial integrity is compromised and the stored Ca^2+ is released. The distribution of Ca^2+ between extra- and intra-mitochondrial compartments can be measured in real time with the use of membrane-impermeant Ca^2+ sensitive fluorescent dyes. Depending on the configuration of the assay, inhibition or modulation of the mPTP either delays the opening of the pore or increases the concentration of Ca^2+ required to induce mPTP opening.
MPTP activity was measured in mitochondria freshly isolated from female Sprague Dawley (250 to 300 gram) rat livers using the following method. Cervical dislocation was performed on the rat. The liver was then perfused in-situ with ~40 ml cold Dulbecco's Phosphate Buffered Saline (DPBS) prior to dissection and transferred into 30 ml Isolation Buffer (250 mM Sucrose, 10 mM KCl, 1 mM EGTA, 1 mM EDTA, 25 mM HEPES, adjusted to pH 7.5 with 1M NaOH). Each lobe of the liver was then removed from the buffer, minced using tweezers and a scalpel into ~5 mm pieces then transferred into a 50 ml Potterton dounce homogenization tube on ice containing 30 ml ice-cold centrifugation buffer (300 mM Trehalose, 25 mM HEPES, 1 mM EGTA, 1 mM EDTA, 10 mM KCl, adjusted to pH 7.5 with 1M NaOH and supplemented with 0.1% bovine serum albumin (BSA) and complete protease inhibitor cocktail (one tablet of inhibitor per 50 mls of buffer). Homogenisation was carried out using a Teflon® pestle at 1800 rpm. The slurry was centrifuged at 800 g for 10 min at 4° C., then the supernatant centrifuged at 10,000 g for 10 min. The pellet was washed once with FLIPR assay buffer (75 mM Mannitol, 25 mM Sucrose, 5 mM Potassium Phosphate Monobasic, 20 mM Tris base, 100 mM KCl, 0.1% BSA adjusted to pH 7.4 with 5M HCl) centrifuged again, then resuspended in FLIPR assay buffer to a concentration of 8.8 mg/ml protein.
Tested compounds (10 mM stock in DMSO) were serially diluted in DMSO in half log steps to generate 10 test concentrations (final concentrations in assay 30 μM to 1 nM). An intermediate dilution of 5 μl DMSO samples into 247 μl FLIPR assay buffer was carried out prior to transfer of 5 μl into duplicate wells of a 384 well polypropylene assay plate. Control wells were 0.5% (v/v) DMSO and 5 μM cyclosporin A.
A stock mitochondria/Fluo5N assay solution was prepared in 5.6 ml FLIPR assay buffer (at RT) supplemented with succinate disodium salt (10 mM), rotenone (1 μM), Fluo5N pentapotassium salt (2 μM) and 1 ml mitochondria suspension, then transferred (15 μl) into the assay plate containing test compounds and incubated for 10 min at RT. Assay plates were processed for fluorescence detection on either a FLIPR Tetra (Molecular Devices) or CLARIOstar (BMG) plate reader. For kinetic fluorescence detection on the FLIPR, dye fluorescence was measured every 3 sec for a total of 10 min. After 12 sec, a 2.5 μl bolus of CaCl2 (75 μM) was added from a source plate containing 675 μM CaCl2 in FLIPR assay buffer. Alternatively, the 2.5 μl addition of CaCl2 was performed using a Viaflow 384, plates were incubated at RT for 10 min, and dye fluorescence measured after 10 min on the CLARIOstar plate reader. pIC50 values for tested compounds were calculated using the fluorescence value collected at the 10 min timepoint on either plate reader, with % inhibition calculated using the DMSO control and cyclosporin A values as 0 and 100% respectively.

The test system of experiment [2] is mPTP. The experiment is described as follows: mPTP activity (Ca2+ retention) assay in isolated rat brain mitochondria. The format is biochemical. Conditions: for mPTP Rat brain pIC50: isolated rat brain mitochondria, Fluo5N fluorescence at 10 min after Ca2+ (75 μM) bolus. The procedure:
MPTP activity was measured in brain mitochondria freshly isolated from female Sprague Dawley (250 to 300 gram) rats. Anaesthetised rats were perfused in-situ with ~40 ml cold Dulbecco's Phosphate Buffered Saline (DPBS), then brains dissected and transferred into 30 ml Isolation Buffer (225 mM mannitol, 75 mM sucrose, 1 mM EGTA, adjusted to pH 7.4 with 1M NaOH). The brain was minced using tweezers and a scalpel into ~5 mm pieces then transferred into a 50 ml Potterton Dounce homogenization tube on ice containing 10 ml ice-cold isolation buffer (as above with addition of Complete Protease inhibitor; 1 tablet per 50 ml buffer). Homogenisation was carried out using a Teflon® pestle at 1800 rpm. The slurry was centrifuged at 2000 g for 10 min at 4° C., then the supernatant centrifuged at 12,000 g for 9 min. The pellet was resuspended with a dounce homogeniser in isolation buffer as above but with the addition of 0.02% digitonin, centrifuged at 12,000 g for 11 min and finally resuspended in 5 ml modified isolation buffer (as above but with EGTA reduced to 0.1 mM).
Test compounds were prepared in 384 well polypropylene assay plates as described above for the liver mitochondria assay. A stock mitochondria/Fluo5N assay solution was prepared in 5.6 ml assay buffer (120 mM mannitol, 40 mM MOPS, 5 mM KH2PO4, 60 mM KCl, 10 mM pyruvate, 2 mM malate, 2 mM MgCl2, 20 μM ADP, 1.26 μM oligomycin A, adjusted to pH 7.4) supplemented with Fluo5N pentapotassium salt (2 μM) and 1 ml mitochondria suspension, then transferred (15 μl) into the assay plate containing test compounds and incubated for 10 min at RT. Assay plates were then transferred to a FLIPR Tetra plate reader (Molecular Devices). Dye fluorescence was then measured every 3 sec for a total of 10 min.

SMILES strings stand for the structures.

Consider `O=C(c1cncc(=O)[nH]1)N1CC(c2ccc(Br)cc2)C2(CCC2)C1` (single isomer, unassigned) [Example 29a, 6-(8-(4-bromophenyl)-6-azaspiro[3.4]octane-6-carbonyl)pyrazin-2(1H)-one], for which the “mPTP Rat liver pIC50*” value in the experiment on mPTP [1] turned out to be 4.59. Further, in the experiment with mPTP [2], the “mPTP Rat brain pIC50” value is 6.2.

With `O=C(c1cncc(=O)[nH]1)N1CC(c2ccc(Br)cc2)C2(CCC2)C1` (single isomer, unassigned) [Example 29b, 6-(8-(4-bromophenyl)-6-azaspiro[3.4]octane-6-carbonyl)pyrazin-2(1H)-one], the “mPTP Rat liver pIC50*” value in the experiment with mPTP [1] is on record as less than 4.52. Besides, the “mPTP Rat brain pIC50” value with mPTP [2] is recorded as less than 4.52.

With `O=C(c1cncc(=O)[nH]1)N1CC(c2ccccc2Cl)C2(CCC2)C1` (single isomer, unassigned) [Example 30a, 6-(8-(2-chlorophenyl)-6-azaspiro[3.4]octane-6-carbonyl)pyrazin-2(1H)-one], the “mPTP Rat liver pIC50*” value in the experiment with mPTP [1] came to 5.28. In the experiment on mPTP [2], the “mPTP Rat brain pIC50” value came to 6.92.

For the compound `O=C(c1cncc(=O)[nH]1)N1CC(c2ccccc2Cl)C2(CCC2)C1` (single isomer, unassigned) [Example 30b, 6-(8-(2-chlorophenyl)-6-azaspiro[3.4]octane-6-carbonyl)pyrazin-2(1H)-one], in the experiment with mPTP [1], the “mPTP Rat liver pIC50*” value is recorded as less than 4.52. Moreover, the “mPTP Rat brain pIC50” value in the experiment with mPTP [2] was less than 4.52.

`O=C(c1cncc(=O)[nH]1)N1CC(c2cccc(Cl)c2)C2(CCC2)C1` (single isomer, unassigned) [Example 31a, 6-(8-(3-chlorophenyl)-6-azaspiro[3.4]octane-6-carbonyl)pyrazin-2(1H)-one]: the “mPTP Rat liver pIC50*” value in the experiment with mPTP [1] worked out at 6.17. Moreover, in the experiment with mPTP [2], the “mPTP Rat brain pIC50” value was 7.22.

In the case of `O=C(c1cncc(=O)[nH]1)N1CC(c2cccc(Cl)c2)C2(CCC2)C1` (single isomer, unassigned) [Example 31b, 6-(8-(3-chlorophenyl)-6-azaspiro[3.4]octane-6-carbonyl)pyrazin-2(1H)-one], the “mPTP Rat liver pIC50*” value in the experiment on mPTP [1] was determined as 4.58. For the same compound, in the experiment with mPTP [2], the “mPTP Rat brain pIC50” value was less than 4.52.

Turning to `O=C(c1cncc(=O)[nH]1)N1CC(c2cc(Cl)ccc2F)C2(CCC2)C1` (single isomer, unassigned) [Example 32a], the “mPTP Rat liver pIC50*” value in the experiment on mPTP [1] was found to be 5.87. The “mPTP Rat brain pIC50” value with mPTP [2] turned out to be 7.19.

As for `O=C(c1cncc(=O)[nH]1)N1CC(c2cc(Cl)ccc2F)C2(CCC2)C1` (single isomer, unassigned) [Example 32b], the “mPTP Rat liver pIC50*” value in the experiment on mPTP [1] is reported as less than 4.52. In addition, in the experiment on mPTP [2], the “mPTP Rat brain pIC50” value is given as less than 4.52.

In the case of `O=C(c1cncc(=O)[nH]1)N1CC(c2cccc(Cl)c2F)C2(CCC2)C1` (single isomer, unassigned) [Example 33a, 6-(8-(3-chloro-2-fluorophenyl)-6-azaspiro[3.4]octane-6-carbonyl)pyrazin-2(1H)-one], the “mPTP Rat liver pIC50*” value in the experiment on mPTP [1] was 5.77. Further, in the experiment on mPTP [2], the “mPTP Rat brain pIC50” value was found to be 7.32.

For `O=C(c1cncc(=O)[nH]1)N1CC(c2cccc(Cl)c2F)C2(CCC2)C1` (single isomer, unassigned) [Example 33b, 6-(8-(3-chloro-2-fluorophenyl)-6-azaspiro[3.4]octane-6-carbonyl)pyrazin-2(1H)-one], the “mPTP Rat liver pIC50*” value with mPTP [1] is listed as less than 4.52. Also, the “mPTP Rat brain pIC50” value in the experiment with mPTP [2] is reported as less than 4.52.

`O=C(c1noc(=O)[nH]1)N1CC(c2ccccc2)C2(CCC2)C1` (single isomer, unassigned) [Example 34a, 3-(8-phenyl-6-azaspiro[3.4]octane-6-carbonyl)-1,2,4-oxadiazol-5(4H)-one]: in the experiment on mPTP [1], the “mPTP Rat liver pIC50*” value was 5.57. Besides, in the experiment with mPTP [2], the “mPTP Rat brain pIC50” value came out at 7.37.

Take `O=C(c1noc(=O)[nH]1)N1CC(c2ccccc2)C2(CCC2)C1` (single isomer, unassigned) [Example 34b, 3-(8-phenyl-6-azaspiro[3.4]octane-6-carbonyl)-1,2,4-oxadiazol-5(4H)-one]: in the experiment with mPTP [1], the “mPTP Rat liver pIC50*” value is less than 4.52. Moreover, the “mPTP Rat brain pIC50” value with mPTP [2] is given as less than 4.52.

Consider `O=C(c1cncc(=O)[nH]1)N1CC(c2ccc(F)cc2)C2(CCC2)C1` (single isomer, unassigned) [Example 35a, 6-(8-(4-fluorophenyl)-6-azaspiro[3.4]octane-6-carbonyl)pyrazin-2(1H)-one], for which the “activity in the rat liver mitochondria assay (ranking in words)” value in the experiment with mPTP [1] (among tested Example compounds) is “highest activity”. In the experiment with mPTP [1], the “mPTP Rat liver pIC50*” value is listed as 6.82. Also, in the experiment with mPTP [2], the “mPTP Rat brain pIC50” value came out at 7.5.

Take `O=C(c1cncc(=O)[nH]1)N1CC(c2ccc(F)cc2)C2(CCC2)C1` (single isomer, unassigned) [Example 35b, 6-(8-(4-fluorophenyl)-6-azaspiro[3.4]octane-6-carbonyl)pyrazin-2(1H)-one]: the “mPTP Rat liver pIC50*” value in the experiment on mPTP [1] was 5.57. For the same compound, the “mPTP Rat brain pIC50” value in the experiment on mPTP [2] came to 5.79.

For `O=C(c1cc(O)no1)N1CC(c2ccc(F)cc2)C2(CCC2)C1` (single isomer, unassigned) [Example 36a, (8-(4-fluorophenyl)-6-azaspiro[3.4]octan-6-yl)(3-hydroxyisoxazol-5-yl)methanone], the “mPTP Rat liver pIC50*” value with mPTP [1] is reported as 6.65. The “activity in the rat brain mitochondria assay (ranking in words)” value in the experiment with mPTP [2] (among tested Example compounds) was “highest activity”. In addition, the “mPTP Rat brain pIC50” value in the experiment with mPTP [2] is listed as 7.53.

Regarding `O=C(c1cc(O)no1)N1CC(c2ccc(F)cc2)C2(CCC2)C1` (single isomer, unassigned) [Example 36b, (8-(4-fluorophenyl)-6-azaspiro[3.4]octan-6-yl)(3-hydroxyisoxazol-5-yl)methanone], the “mPTP Rat liver pIC50*” value with mPTP [1] is on record as less than 4.52. Besides, the “mPTP Rat brain pIC50” value in the experiment with mPTP [2] was less than 4.52.

For the compound `O=C(c1cncc(=O)[nH]1)N1CC(c2ccc(F)cc2F)C2(CCC2)C1` (single isomer, unassigned) [Example 37a, 6-(8-(2,4-difluorophenyl)-6-azaspiro[3.4]octane-6-carbonyl)pyrazin-2(1H)-one], in the experiment on mPTP [1], the “mPTP Rat liver pIC50*” value is recorded as 5.99. The “mPTP Rat brain pIC50” value in the experiment with mPTP [2] amounted to 7.28.

Consider `O=C(c1cncc(=O)[nH]1)N1CC(c2ccc(F)cc2F)C2(CCC2)C1` (single isomer, unassigned) [Example 37b, 6-(8-(2,4-difluorophenyl)-6-azaspiro[3.4]octane-6-carbonyl)pyrazin-2(1H)-one], for which the “mPTP Rat liver pIC50*” value in the experiment on mPTP [1] is listed as less than 4.52. The “mPTP Rat brain pIC50” value in the experiment on mPTP [2] is less than 4.52.
